Measured values published in article PMC3983056 (PLoS Pathogens, 2014).
Values joined by “and” are separate entries in the source; they are usually repeats but may differ in a detail not shown here. Identical values can stand only once. Like-named read-outs stand apart in the source and are kept apart here.

Tests used:
[1] = tested on: HIV expressing a luciferase reporter gene (NL4-3-Luc) in latently infected primary CD4 T cells; assay: microbe, parasite or virus in culture; type: cell-based; conditions: Human immunodeficiency virus 1, NL43, CD4+ T, 48 h, continuous 48 hours, cells from three healthy donors, mean ± SD
Text: To assess clinically tested HDACi for their ability to activate HIV from latency, we first employed a previously described in vitro HIV latency model, [30] with several modifications to increase the sensitivity of detection. The assay involves freshly isolated naïve CD4 T cells from healthy donors polarized to a Th0 phenotype, which mimics memory CD4 T cells. These Th0 cells are then infected with HIV expressing a luciferase reporter gene and cultured for an additional 7 to 10 days until a latent infection is established.
Total peripheral blood mononuclear cells (PBMCs) were obtained from healthy HIV-negative donors by leukapheresis (AllCells, Inc, Emeryville, CA). […] Purified naive CD4+ T cells were activated by incubation with anti-CD3/CD28 magnetic Dynabeads (1 bead: 2 cells ratio, Life Technologies), 1 µg/ml anti-IL-4 (R&D Systems, Minneapolis, MN), 2 µg/ml anti-IL-12p70 antibodies (R&D Systems), and 10 ng/ml TGF-β (R&D Systems) for 3 days, [59]. Following the removal of anti-CD3/CD28 beads and antibodies, cells were maintained in 30 U/ml IL-2 (Life Technologies) for 2 days. Cells were then infected with NL4.3-Luc in the presence of 50 µg/ml DEAE for 3 hours. Cells were maintained in the continued presence of 30 U/ml IL-2 throughout the infection and subsequent rest period with culture medium with fresh IL-2 replaced every 2–3 days. Seven days post-infection, 20 µl of latently infected cells were dispensed into 384 well plates using a MicroFlo dispenser (Biotek Insturments, VT) at 10,000 cells/well containing 100 nl of compound solutions delivered by the Echo acoustic-based liquid dispenser (Labcyte, Sunnyvale, CA). After a 48-hour incubation, 16 µl/well BriteGlo (Promega, Madison, WI) was added and luminescence measured using the Envision plate reader (Perkin Elmer, Waltham, MA). Compound-associated cytotoxicity was determined in latently infected cells in parallel with the virus activation assay. Cells were incubated with compounds for 48 hours at 37°C, and cell viability was determined using Cell Titer Glo reagent (Promega).

human HDAC-7 = target: T1, human HDAC-7 (Homo sapiens, UniProt Q8WUI4); assay: HDAC inhibition assay; type: biochemical
T1 construct: purchased Reaction Biology Corporation (Malvern, PA)
T1 sequence (Q8WUI4 whole entry): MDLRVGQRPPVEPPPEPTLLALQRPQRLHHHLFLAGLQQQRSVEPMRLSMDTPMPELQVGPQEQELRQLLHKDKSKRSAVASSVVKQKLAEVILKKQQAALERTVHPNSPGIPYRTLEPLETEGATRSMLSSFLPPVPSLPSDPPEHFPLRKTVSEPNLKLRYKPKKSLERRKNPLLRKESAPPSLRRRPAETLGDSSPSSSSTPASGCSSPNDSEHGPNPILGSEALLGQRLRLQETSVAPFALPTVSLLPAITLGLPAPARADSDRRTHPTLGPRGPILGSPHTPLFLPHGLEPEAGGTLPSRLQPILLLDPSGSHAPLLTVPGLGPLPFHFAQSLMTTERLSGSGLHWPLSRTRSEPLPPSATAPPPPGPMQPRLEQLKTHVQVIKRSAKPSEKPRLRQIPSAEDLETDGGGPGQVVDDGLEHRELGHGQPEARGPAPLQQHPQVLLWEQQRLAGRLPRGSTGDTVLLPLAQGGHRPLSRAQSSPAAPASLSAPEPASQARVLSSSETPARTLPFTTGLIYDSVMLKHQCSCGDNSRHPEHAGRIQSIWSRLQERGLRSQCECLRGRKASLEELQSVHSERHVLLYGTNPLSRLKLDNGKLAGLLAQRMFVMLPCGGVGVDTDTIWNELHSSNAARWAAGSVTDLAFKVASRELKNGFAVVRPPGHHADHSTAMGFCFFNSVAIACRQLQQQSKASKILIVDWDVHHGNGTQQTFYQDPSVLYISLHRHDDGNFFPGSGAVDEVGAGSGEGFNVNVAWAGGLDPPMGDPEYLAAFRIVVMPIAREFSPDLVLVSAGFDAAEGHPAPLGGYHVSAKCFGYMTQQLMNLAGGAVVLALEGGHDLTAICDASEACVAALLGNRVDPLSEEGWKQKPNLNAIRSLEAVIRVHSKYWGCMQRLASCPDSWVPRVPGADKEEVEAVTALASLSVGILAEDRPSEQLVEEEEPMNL
Method: (§3) Determination of HDACi potency against individual HDAC enzymes was performed at Reaction Biology Corporation (Malvern, PA). In brief, human HDAC-1 to -11 enzymes were incubated with serial dilutions of HDACi and fluorogenic peptide substrates (50 µM) in a 96-well format assay. […] Fluorogenic peptide Boc-Lys(trifluoroacetyl)-AMC was used as a substrate for HDAC enzymes 4, 5, 7, and 9.

human HDAC-9 = target: T2, human HDAC-9 (Homo sapiens, UniProt Q9UKV0); assay: HDAC inhibition assay; type: biochemical
T2 construct: purchased Reaction Biology Corporation (Malvern, PA)
T2 sequence (Q9UKV0 whole entry): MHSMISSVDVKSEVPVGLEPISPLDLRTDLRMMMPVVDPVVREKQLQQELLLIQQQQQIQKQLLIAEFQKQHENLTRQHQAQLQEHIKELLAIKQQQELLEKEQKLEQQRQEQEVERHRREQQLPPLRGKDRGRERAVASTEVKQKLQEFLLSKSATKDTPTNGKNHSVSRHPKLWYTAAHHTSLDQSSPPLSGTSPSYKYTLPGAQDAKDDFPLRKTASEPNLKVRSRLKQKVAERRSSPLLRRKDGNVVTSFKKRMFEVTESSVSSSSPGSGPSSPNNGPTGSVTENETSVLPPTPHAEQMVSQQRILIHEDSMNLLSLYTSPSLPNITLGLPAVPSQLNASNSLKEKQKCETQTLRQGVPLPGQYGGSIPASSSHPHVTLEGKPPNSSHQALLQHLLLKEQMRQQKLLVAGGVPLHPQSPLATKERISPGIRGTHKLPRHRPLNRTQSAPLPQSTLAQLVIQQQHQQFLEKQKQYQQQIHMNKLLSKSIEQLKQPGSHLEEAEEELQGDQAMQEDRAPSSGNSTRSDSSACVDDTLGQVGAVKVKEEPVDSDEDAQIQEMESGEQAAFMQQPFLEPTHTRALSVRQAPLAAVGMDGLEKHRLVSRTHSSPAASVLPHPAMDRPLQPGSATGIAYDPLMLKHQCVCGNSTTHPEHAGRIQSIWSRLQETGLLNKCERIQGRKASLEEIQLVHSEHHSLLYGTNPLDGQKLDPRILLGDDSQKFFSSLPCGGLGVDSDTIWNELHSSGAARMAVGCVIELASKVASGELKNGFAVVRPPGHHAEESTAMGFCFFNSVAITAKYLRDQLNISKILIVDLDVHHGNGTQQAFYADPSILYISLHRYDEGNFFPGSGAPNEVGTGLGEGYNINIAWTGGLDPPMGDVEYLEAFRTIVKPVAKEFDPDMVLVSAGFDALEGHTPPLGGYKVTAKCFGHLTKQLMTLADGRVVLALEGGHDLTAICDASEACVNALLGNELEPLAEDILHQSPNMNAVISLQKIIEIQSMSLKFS
Method: as §3

[2] = tested on: latent HIV in memory CD4 T cells from HIV-infected patients on suppressive cART; assay: Ex vivo activation of HIV transcription, cell-associated HIV RNA, memory CD4 T cells; type: cell-based; conditions: for HIV RNA avg: Figure 2A, 40 nM RMD, one value per donor
Method: (§1) To examine the kinetics of HIV induction, we analyzed cell-associated viral RNA levels at 6, 12, 24, and 48 hours after treatment initiation.
(§2) Lysates were filtered through a Qiashredder (Qiagen).

[3] = tested on: latent HIV in resting CD4 T cells from HIV-infected patients on suppressive cART; type: cell-based; conditions: for HIV RNA avg: 40 nM RMD, one value per donor; for HIV RNA [copies/mil cells] avg: Figure 5
Method: as §1, §2

[4] = tested on: HIV gag-pol RNA from resting CD4 T cells of a cART-suppressed patient; assay: Single-genome sequencing of HIV RNA in culture supernatants; type: cell-based; conditions: 2.5 nM RMD, continuous, day 7
Text: In parallel, we assessed the sequence diversity of HIV proviruses integrated in genomic DNA of resting CD4 T cells from the same culture.
Figure 8 Phylogenetic analysis of HIV sequences expressed ex vivo following the latency reversal. […] Single-genome sequencing was used to analyze patient HIV proviral DNA and plasma RNA at the initiation of treatment (day 0), together with the ex vivo induced HIV RNA in cell culture supernatants at the end of treatment (day 7). […] Identified HIV DNA and RNA sequences were aligned and the phylogenetic tree was constructed using Clustal W and MEAG5.
Single-genome sequencing of a portion of HIV-1 gag-pro-pol amplified from cell culture supernatants or cellular DNA extracts was performed as previously described [34]–[36]. Sequences were aligned using ClustalW and neighbor-joining phylogenetic analysis was performed using MEGA5. Trees were rooted on the subtype B consensus sequence (www.hiv.lanl.gov).

[5] = Cell culture medium protein binding by equilibrium dialysis, HPLC/mass spectrometry; type: in vitro ADME
[6] = tested on: latent HIV in memory CD4 T cells from HIV-infected patients on suppressive cART; conditions: for HIV RNA avg: 6 days, one value per donor; for extracellular HIV RNA in culture supernatants: memory CD4 T cells
Text: We used HIV RNA in cell culture supernatants as a surrogate marker for virion release from treated cells. We assumed that extracellular virions would accumulate over the course of several days; therefore, the duration of culture was extended to 6 days to maximize assay sensitivity.
HIV-infected patients participating in the study were selected based on sustained plasma viral load suppression (<50 copies/ml for >12 months), CD4 counts (>350 cells/µL), and absence of co-infection with hepatitis B or C virus (Supplementary Table S1). Clinical laboratory results were reconfirmed 2 weeks before leukapheresis or blood draw. Leukapheresis was conducted for 3–4 hours, and samples were processed within 2 hours after collection. The leukapheresis product was diluted 1∶1 with PBS and layered over Ficoll for isolation of PBMCs. […] Resting CD4 T cells were isolated by first enriching total CD4 T cells (StemCell Technologies) and subsequently depleting HLA-DR-, CD25-, and CD69-positive cells via negative selection (Miltenyi Biotec, Auburn, CA).
To assess HIV activation by HDACi, up to 5 million CD4 T cells were plated in 24-well plates in 2.5 ml of media, supplemented with antiretrovirals (ARVs) (100 nM elvitegravir and 100–300 nM efavirenz) for the entire duration of culture incubation. HDACi were added at specified concentrations on day 0 and cells or culture supernatants were harvested for the analysis of HIV RNA at the indicated time points (6–48 hours or 6–7 days, respectively). For HDACi pulse treatment, cultures were washed twice using ARV-containing media at 4 or 24 hours after addition of HDACi and incubated with ARVs until harvest. To measure HIV RNA levels, 1 ml of culture supernatant was analyzed by a robotic COBAS AmpliPrep/TaqMan system (Roche Diagnostics, Indianapolis, IN), which extracts total nucleic acid and quantifies HIV RNA in copies per milliliter using the HIV-1 Test, v2.0 kit (Roche Diagnostics). For the measurement of cell-associated HIV RNA levels, cells were washed with PBS, counted, and lysed (Qiagen RLT buffer, 400 µl for every 2 million cells; Qiagen, Venlo, Netherlands). Lysates were filtered through a Qiashredder (Qiagen). Total RNA was prepared from the lysates (400 µl) using a robotic system (QIAsymphony, Qiagen) that incorporates a DNase I digestion step to eliminate cellular DNA. The resulting total RNA was eluted with 200 µl of buffer, diluted to 1 ml with nuclease-free water, and analyzed by COBAS using the HIV-1 Test v2.0 kit. Preparations of both cell-associated RNA and supernatant total nucleic acids were tested for potential contamination with HIV DNA and/or host DNA by performing the PCR amplification in the presence and absence of reverse transcriptase and by a detection of GAPDH-encoding host DNA sequence.
HIV RNA-induction experiments were conducted using 5 to 6 replicates for every experimental condition, including vehicle-treated controls. Fold induction in HIV RNA levels was calculated as a ratio of mean signals from compound-treated and vehicle (DMSO)-treated control samples from the same donor under identical conditions. […] For experiments using blood-derived resting CD4 T cells, culture supernatants from 3 replicate wells were combined and analyzed using the COBAS system.

[7] = human, in vivo; cited from earlier work

C/C=C1\NC(=O)[C@H]2CSSCC/C=C/[C@H](CC(=O)N[C@H](C(C)C)C(=O)N2)OC(=O)[C@H](C(C)C)NC1=O [RMD, romidepsin]
EC50 [1]: 0.0045 ± 0.001 µM | IC50 (human HDAC-7): 3.4 µM | IC50 (human HDAC-9): 8.91 µM | HIV RNA avg ([2]; 6hr): 164 copies/mil cells and 924 copies/mil cells and 4345 copies/mil cells and 5330 copies/mil cells and 714 copies/mil cells | HIV RNA avg ([2]; 12hr): 222 copies/mil cells and 562 copies/mil cells and 5634 copies/mil cells and 3147 copies/mil cells and 922 copies/mil cells | HIV RNA avg ([2]; 24hr): 702 copies/mil cells and 1193 copies/mil cells and 7541 copies/mil cells and 2530 copies/mil cells and 1320 copies/mil cells | HIV RNA avg ([2]; 48hr): 2153 copies/mil cells and 3839 copies/mil cells and 30568 copies/mil cells and 3060 copies/mil cells and 1406 copies/mil cells | increase in intracellular HIV RNA levels versus vehicle ([2]; memory CD4 T cells, 40 nM RMD for 4 hours, peak between 24 and 48 hours): 6 fold | HIV RNA avg ([3]; Figure 2B, 6hr): 9642 copies/mil cells and 324 copies/mil cells and 14747 copies/mil cells and 6687 copies/mil cells and 2352 copies/mil cells | HIV RNA avg ([3]; Figure 2B, 12hr): 6663 copies/mil cells and 352 copies/mil cells and 13013 copies/mil cells and 9057 copies/mil cells and 2763 copies/mil cells | HIV RNA avg ([3]; Figure 2B, 24hr): 8902 copies/mil cells and 542 copies/mil cells and 17191 copies/mil cells and 14960 copies/mil cells and 4744 copies/mil cells | HIV RNA avg ([3]; Figure 2B, 48hr): 3882 copies/mil cells and 831 copies/mil cells and 21497 copies/mil cells and 14409 copies/mil cells and 7107 copies/mil cells | HIV RNA avg ([3]; Figure 4, 6 hours): 6481 copies/mil cells and 2385 copies/mil cells | HIV RNA avg ([3]; Figure 4, 24 hours): 15888 copies/mil cells and 7188 copies/mil cells | HIV RNA avg ([3]; Figure 4, 48 hours): 8834 copies/mil cells and 9481 copies/mil cells | HIV RNA [copies/mil cells] avg ([3]; 3.5 nM RMD, 6 hours, donor 6): 4270 copies/mil cells | HIV RNA [copies/mil cells] avg ([3]; 3.5 nM RMD, 6 hours, donor 7): 3321 copies/mil cells | HIV RNA [copies/mil cells] avg ([3]; 3.5 nM RMD, 6 hours, donor 8): 816 copies/mil cells | HIV RNA [copies/mil cells] avg ([3]; 3.5 nM RMD, 12 hours, donor 6): 3943 copies/mil cells | HIV RNA [copies/mil cells] avg ([3]; 3.5 nM RMD, 12 hours, donor 7): 2314 copies/mil cells | HIV RNA [copies/mil cells] avg ([3]; 3.5 nM RMD, 12 hours, donor 8): 526 copies/mil cells | HIV RNA [copies/mil cells] avg ([3]; 3.5 nM RMD, 24 hours, donor 6): 4673 copies/mil cells | HIV RNA [copies/mil cells] avg ([3]; 3.5 nM RMD, 24 hours, donor 7): 2633 copies/mil cells | HIV RNA [copies/mil cells] avg ([3]; 3.5 nM RMD, 24 hours, donor 8): 586 copies/mil cells | HIV RNA [copies/mil cells] avg ([3]; 3.5 nM RMD, 48 hours, donor 6): 3640 copies/mil cells | HIV RNA [copies/mil cells] avg ([3]; 3.5 nM RMD, 48 hours, donor 7): 4009 copies/mil cells | HIV RNA [copies/mil cells] avg ([3]; 3.5 nM RMD, 48 hours, donor 8): 769 copies/mil cells | HIV RNA [copies/mil cells] avg ([3]; 15 nM RMD, 6 hours, donor 6): 9276 copies/mil cells | HIV RNA [copies/mil cells] avg ([3]; 15 nM RMD, 6 hours, donor 7): 5400 copies/mil cells | HIV RNA [copies/mil cells] avg ([3]; 15 nM RMD, 6 hours, donor 8): 2254 copies/mil cells | HIV RNA [copies/mil cells] avg ([3]; 15 nM RMD, 12 hours, donor 6): 15172 copies/mil cells | HIV RNA [copies/mil cells] avg ([3]; 15 nM RMD, 12 hours, donor 7): 4260 copies/mil cells | HIV RNA [copies/mil cells] avg ([3]; 15 nM RMD, 12 hours, donor 8): 1826 copies/mil cells | HIV RNA [copies/mil cells] avg ([3]; 15 nM RMD, 24 hours, donor 6): 24438 copies/mil cells | HIV RNA [copies/mil cells] avg ([3]; 15 nM RMD, 24 hours, donor 7): 9787 copies/mil cells | HIV RNA [copies/mil cells] avg ([3]; 15 nM RMD, 24 hours, donor 8): 4270 copies/mil cells | HIV RNA [copies/mil cells] avg ([3]; 15 nM RMD, 48 hours, donor 6): 19207 copies/mil cells | HIV RNA [copies/mil cells] avg ([3]; 15 nM RMD, 48 hours, donor 7): 13754 copies/mil cells | HIV RNA [copies/mil cells] avg ([3]; 15 nM RMD, 48 hours, donor 8): 3470 copies/mil cells | HIV RNA [copies/mil cells] avg ([3]; 45 nM RMD, 6 hours, donor 6): 14747 copies/mil cells | HIV RNA [copies/mil cells] avg ([3]; 45 nM RMD, 6 hours, donor 7): 6687 copies/mil cells | HIV RNA [copies/mil cells] avg ([3]; 45 nM RMD, 6 hours, donor 8): 2352 copies/mil cells | HIV RNA [copies/mil cells] avg ([3]; 45 nM RMD, 12 hours, donor 6): 13013 copies/mil cells | HIV RNA [copies/mil cells] avg ([3]; 45 nM RMD, 12 hours, donor 7): 9057 copies/mil cells | HIV RNA [copies/mil cells] avg ([3]; 45 nM RMD, 12 hours, donor 8): 2763 copies/mil cells | HIV RNA [copies/mil cells] avg ([3]; 45 nM RMD, 24 hours, donor 6): 17191 copies/mil cells | HIV RNA [copies/mil cells] avg ([3]; 45 nM RMD, 24 hours, donor 7): 14960 copies/mil cells | HIV RNA [copies/mil cells] avg ([3]; 45 nM RMD, 24 hours, donor 8): 4744 copies/mil cells | HIV RNA [copies/mil cells] avg ([3]; 45 nM RMD, 48 hours, donor 6): 21497 copies/mil cells | HIV RNA [copies/mil cells] avg ([3]; 45 nM RMD, 48 hours, donor 7): 14409 copies/mil cells | HIV RNA [copies/mil cells] avg ([3]; 45 nM RMD, 48 hours, donor 8): 7107 copies/mil cells | induction of HIV transcription ([3]; resting CD4 T cells, 3.5 nM RMD for 4 hours): minimal induction | increase in intracellular HIV RNA levels versus vehicle ([3]; resting CD4 T cells, 40 nM RMD for 4 hours, peak between 24 and 48 hours): 6 fold | persistence of intracellular HIV RNA induction ([3]; resting CD4 T cells, pulse RMD 4 hours, VOR 24 hours, PNB 24 hours, 6 to 48 hours): persisted throughout the 48-hour incubation period | sequences of HIV RNA collected in culture supernatants [4]: 4 | Free drug concentration, ex vivo cell culture exposure ([5]; RMD 40 nM, VOR 1,000 nM in culture): 0.022 µM | fraction unbound ([5]; cell culture medium, equilibrium dialysis, read-out: Cell culture medium protein binding (free fraction)): 0.55 | HIV RNA avg ([6]; Figure 3A, 5 nM RMD): 1476 copies/mil cells and 10908 copies/mil cells and 138 copies/mil cells and 222 copies/mil cells and 322 copies/mil cells and 41.9 copies/mil cells and 73 copies/mil cells and 313.5 copies/mil cells | HIV RNA avg ([6]; Figure 3A, 20 nM RMD): 68 copies/mil cells and 712 copies/mil cells and 1346 copies/mil cells and 3086 copies/mil cells and 1361 copies/mil cells and 157 copies/mil cells and 732 copies/mil cells and 4776 copies/mil cells | HIV RNA avg ([6]; Figure 3B, 5 nM RMD): 1032 copies/mil cells and 1674 copies/mil cells and 1740 copies/mil cells and 1435 copies/mil cells and 1299 copies/mil cells and 1832 copies/mil cells and 6659 copies/mil cells and 1420 copies/mil cells and 8934 copies/mil cells and 205 copies/mil cells and 148 copies/mil cells and 1219 copies/mil cells | High-responding patient; HIV RNA [copies/mL] ([6]; Figure 7, 0.093nM RMD, donor 29, experiments 1-3): 34 copies/mL and 36 copies/mL and 64 copies/mL | Low-responding patient; HIV RNA [copies/mL] ([6]; Figure 7, 0.093nM RMD, donor 33, experiments 1-3): 20 copies/mL and 28 copies/mL | extracellular HIV RNA in culture supernatants ([6]; 5 nM RMD continuous 6 days): detection of extracellular HIV RNA in memory CD4 T-cell cultures from the majority of tested donors | extracellular HIV RNA in culture supernatants ([6]; 5 and 20 nM RMD for 4 hours, day 6): increased extracellular HIV RNA | most common adverse reactions [7]: thrombocytopenia, neutropenia, lymphopenia, nausea, and fatigue
